Results on ten compounds are retold here after the SangsterLogP compilation.

The nature of the data set: method code SF, from DOI: 10.1002/jps.2600650919, PMID: 966149. As to conditions: pH 7.4.

Regarding `CC12CCC(=O)C=C1CC(C#N)C1C2CCC2(C)C1CCC21CCC(=O)O1` (stereo not given), the logD (usually the decadic logarithm of the distribution of all forms, ionised or not, between an organic phase and buffer at a given pH) turned out to be 1.67.

Turning to `CC(=O)SC1CC2=CC(=O)CCC2(C)C2CCC3(C)C(CCC34CCC(=O)O4)C12` (stereo not given), the logD amounted to 2.78. In turn, `CCOC(=O)C1CC2=CC(=O)CCC2(C)C2CCC3(C)C(C4CCC(=O)O4)CCC3C12` (stereo not given) returned a logD of 2.54. Take `COC(=O)C1CC2=CC(=O)CCC2(C)C2CCC3(C)C(CCC34CCC(=O)O4)C12` (stereo not given): the logD amounted to 2.18.

The compound `CC12CCC(=O)C=C1CCC1C3CCC4(CCC(=O)O4)C3(C)CC3OC312` (stereo not given) registered a logD of 1.96. Under `CC12CCC(=O)C=C1C=CC1C2CCC2(C)C1CCC21CCC(=O)O1` (stereo not given) stands 2.68; under `CC(C)OC(=O)C1CC2=CC(=O)CCC2(C)C2CCC3(C)C(C4CCC(=O)O4)CCC3C12` (stereo not given), 2.82. Under `CC12CCC(=O)C=C1C1(CC1)CC1C2CCC2(C)C1CCC21CCC(=O)O1` (stereo not given) stands 3.15. Consider `CC12CCC(=O)C=C1C1CC1C1C2CCC2(C)C1CCC21CCC(=O)O1` (stereo not given), for which the logD was determined as 3.08. As for `CC12CCC(=O)C=C1CCC1C3CCC4(CCC(=O)O4)C3(C)CC(O)C12F` (stereo not given), the logD amounted to 2.4.
